Test results published in PubChem BioAssay (NCI).
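96-well plates; 48 h exposure; 5 concentrations. Endpoints by linear interpolation between flanking doses. Not reached: highest tested concentration assigned. The concentration for full growth arrest is given as TGI.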

What follows are compounds tested on ACHN renal (assay: inhibition of tumour cell growth, NCI panel, 48 h).

| Compound | TGI [µM] |
| --- | --- |
| CN(C)CCCNC(=O)c1cc2/c(=C\c3ccc(N(C)C)cc3)c3ccccc3n2[n+]1C | > 100 |
| CC(C)(C)c1ccc(C(C)(C)C)c(N2C(=O)[C@@H]3[C@@H]4C=C[C@@H](C4)[C@]3(C)C2=O)c1 | > 100 |

Each compound was assayed on SNB-75 CNS (assay: inhibition of tumour cell growth, NCI panel, 48 h).

| Compound | TGI [µM] |
| --- | --- |
| Cn1c(-c2ccccc2)cc(-c2ccsc2)c1-c1ccsc1 | > 100 |

What follows are compounds tested on SK-MEL-5 melanoma (assay: inhibition of tumour cell growth, NCI panel, 48 h).

| Compound | TGI [µM] |
| --- | --- |
| C1CSC(Sc2nc(SC3=NCCS3)nc(SC3=NCCS3)n2)=N1 | > 100 |
| CC(=O)NCCC1CNc2ccccc21 (stereo unspecified) | > 100 |
| Cn1c(-c2ccccc2)cc(-c2ccsc2)c1-c1ccsc1 | > 100 |
| CN(C)CCCNC(=O)c1cc2/c(=C\c3ccc(N(C)C)cc3)c3ccccc3n2[n+]1C | 31.3 |
| CC(C)(C)c1ccc(C(C)(C)C)c(N2C(=O)[C@@H]3[C@@H]4C=C[C@@H](C4)[C@]3(C)C2=O)c1 | > 100 |

Each compound was assayed on SW-620 colon (assay: inhibition of tumour cell growth, NCI panel, 48 h).

| Compound | TGI [µM] |
| --- | --- |
| C1CSC(Sc2nc(SC3=NCCS3)nc(SC3=NCCS3)n2)=N1 | > 100 |
| CC(=O)NCCC1CNc2ccccc21 (stereo unspecified) | > 100 |
| Cn1c(-c2ccccc2)cc(-c2ccsc2)c1-c1ccsc1 | > 100 |
| CN(C)CCCNC(=O)c1cc2/c(=C\c3ccc(N(C)C)cc3)c3ccccc3n2[n+]1C | > 100 |
| CC(C)(C)c1ccc(C(C)(C)C)c(N2C(=O)[C@@H]3[C@@H]4C=C[C@@H](C4)[C@]3(C)C2=O)c1 | 62.6 |

What follows are compounds tested on BT-549 breast (assay: inhibition of tumour cell growth, NCI panel, 48 h).

| Compound | TGI [µM] |
| --- | --- |
| C1CSC(Sc2nc(SC3=NCCS3)nc(SC3=NCCS3)n2)=N1 | > 100 |
| CC(=O)NCCC1CNc2ccccc21 (stereo unspecified) | > 100 |
| Cn1c(-c2ccccc2)cc(-c2ccsc2)c1-c1ccsc1 | > 100 |
| CN(C)CCCNC(=O)c1cc2/c(=C\c3ccc(N(C)C)cc3)c3ccccc3n2[n+]1C | > 100 |
| CC(C)(C)c1ccc(C(C)(C)C)c(N2C(=O)[C@@H]3[C@@H]4C=C[C@@H](C4)[C@]3(C)C2=O)c1 | 57.7 |

The compounds below were run on SK-MEL-2 melanoma (assay: inhibition of tumour cell growth, NCI panel, 48 h).

| Compound | TGI [µM] |
| --- | --- |
| C1CSC(Sc2nc(SC3=NCCS3)nc(SC3=NCCS3)n2)=N1 | > 100 |
| CC(=O)NCCC1CNc2ccccc21 (stereo unspecified) | > 100 |
| Cn1c(-c2ccccc2)cc(-c2ccsc2)c1-c1ccsc1 | > 100 |
| CN(C)CCCNC(=O)c1cc2/c(=C\c3ccc(N(C)C)cc3)c3ccccc3n2[n+]1C | 35.6 |
| CC(C)(C)c1ccc(C(C)(C)C)c(N2C(=O)[C@@H]3[C@@H]4C=C[C@@H](C4)[C@]3(C)C2=O)c1 | 53.1 |

The compounds below were run on A498 renal (assay: inhibition of tumour cell growth, NCI panel, 48 h).

| Compound | TGI [µM] |
| --- | --- |
| C1CSC(Sc2nc(SC3=NCCS3)nc(SC3=NCCS3)n2)=N1 | > 100 |
| CC(=O)NCCC1CNc2ccccc21 (stereo unspecified) | > 100 |
| Cn1c(-c2ccccc2)cc(-c2ccsc2)c1-c1ccsc1 | > 100 |
| CN(C)CCCNC(=O)c1cc2/c(=C\c3ccc(N(C)C)cc3)c3ccccc3n2[n+]1C | > 100 |
| CC(C)(C)c1ccc(C(C)(C)C)c(N2C(=O)[C@@H]3[C@@H]4C=C[C@@H](C4)[C@]3(C)C2=O)c1 | 69.8 |

What follows are compounds tested on 786-0 renal (assay: inhibition of tumour cell growth, NCI panel, 48 h).

| Compound | TGI [µM] |
| --- | --- |
| C1CSC(Sc2nc(SC3=NCCS3)nc(SC3=NCCS3)n2)=N1 | > 100 |
| Cn1c(-c2ccccc2)cc(-c2ccsc2)c1-c1ccsc1 | > 100 |
| CN(C)CCCNC(=O)c1cc2/c(=C\c3ccc(N(C)C)cc3)c3ccccc3n2[n+]1C | > 100 |
| CC(C)(C)c1ccc(C(C)(C)C)c(N2C(=O)[C@@H]3[C@@H]4C=C[C@@H](C4)[C@]3(C)C2=O)c1 | 40.2 |

The compounds below were run on HL-60(TB) leukemia (assay: inhibition of tumour cell growth, NCI panel, 48 h).

| Compound | TGI [µM] |
| --- | --- |
| C1CSC(Sc2nc(SC3=NCCS3)nc(SC3=NCCS3)n2)=N1 | > 100 |
| CC(=O)NCCC1CNc2ccccc21 (stereo unspecified) | > 100 |
| Cn1c(-c2ccccc2)cc(-c2ccsc2)c1-c1ccsc1 | > 100 |
| CN(C)CCCNC(=O)c1cc2/c(=C\c3ccc(N(C)C)cc3)c3ccccc3n2[n+]1C | 46 |
| CC(C)(C)c1ccc(C(C)(C)C)c(N2C(=O)[C@@H]3[C@@H]4C=C[C@@H](C4)[C@]3(C)C2=O)c1 | 40.4 |

What follows are compounds tested on HCT-15 colon (assay: inhibition of tumour cell growth, NCI panel, 48 h).

| Compound | TGI [µM] |
| --- | --- |
| C1CSC(Sc2nc(SC3=NCCS3)nc(SC3=NCCS3)n2)=N1 | > 100 |
| CC(=O)NCCC1CNc2ccccc21 (stereo unspecified) | > 100 |
| Cn1c(-c2ccccc2)cc(-c2ccsc2)c1-c1ccsc1 | > 100 |
| CN(C)CCCNC(=O)c1cc2/c(=C\c3ccc(N(C)C)cc3)c3ccccc3n2[n+]1C | > 100 |
| CC(C)(C)c1ccc(C(C)(C)C)c(N2C(=O)[C@@H]3[C@@H]4C=C[C@@H](C4)[C@]3(C)C2=O)c1 | 42.9 |

Each compound was assayed on UACC-257 melanoma (assay: inhibition of tumour cell growth, NCI panel, 48 h).

| Compound | TGI [µM] |
| --- | --- |
| C1CSC(Sc2nc(SC3=NCCS3)nc(SC3=NCCS3)n2)=N1 | > 100 |
| CC(=O)NCCC1CNc2ccccc21 (stereo unspecified) | > 100 |
| Cn1c(-c2ccccc2)cc(-c2ccsc2)c1-c1ccsc1 | > 100 |
| CN(C)CCCNC(=O)c1cc2/c(=C\c3ccc(N(C)C)cc3)c3ccccc3n2[n+]1C | 51.3 |
| CC(C)(C)c1ccc(C(C)(C)C)c(N2C(=O)[C@@H]3[C@@H]4C=C[C@@H](C4)[C@]3(C)C2=O)c1 | 74.4 |

Each compound was assayed on SR leukemia (assay: inhibition of tumour cell growth, NCI panel, 48 h).

| Compound | TGI [µM] |
| --- | --- |
| C1CSC(Sc2nc(SC3=NCCS3)nc(SC3=NCCS3)n2)=N1 | > 100 |
| CC(=O)NCCC1CNc2ccccc21 (stereo unspecified) | > 100 |
| Cn1c(-c2ccccc2)cc(-c2ccsc2)c1-c1ccsc1 | > 100 |
| CN(C)CCCNC(=O)c1cc2/c(=C\c3ccc(N(C)C)cc3)c3ccccc3n2[n+]1C | 54.1 |
| CC(C)(C)c1ccc(C(C)(C)C)c(N2C(=O)[C@@H]3[C@@H]4C=C[C@@H](C4)[C@]3(C)C2=O)c1 | 39.9 |

What follows are compounds tested on EKVX NSCLC (assay: inhibition of tumour cell growth, NCI panel, 48 h).

| Compound | TGI [µM] |
| --- | --- |
| C1CSC(Sc2nc(SC3=NCCS3)nc(SC3=NCCS3)n2)=N1 | > 100 |
| CC(=O)NCCC1CNc2ccccc21 (stereo unspecified) | > 100 |
| Cn1c(-c2ccccc2)cc(-c2ccsc2)c1-c1ccsc1 | > 100 |
| CN(C)CCCNC(=O)c1cc2/c(=C\c3ccc(N(C)C)cc3)c3ccccc3n2[n+]1C | 39.7 |
| CC(C)(C)c1ccc(C(C)(C)C)c(N2C(=O)[C@@H]3[C@@H]4C=C[C@@H](C4)[C@]3(C)C2=O)c1 | > 100 |

The compounds below were run on CAKI-1 renal (assay: inhibition of tumour cell growth, NCI panel, 48 h).

| Compound | TGI [µM] |
| --- | --- |
| C1CSC(Sc2nc(SC3=NCCS3)nc(SC3=NCCS3)n2)=N1 | > 100 |
| CC(=O)NCCC1CNc2ccccc21 (stereo unspecified) | > 100 |
| Cn1c(-c2ccccc2)cc(-c2ccsc2)c1-c1ccsc1 | > 100 |
| CN(C)CCCNC(=O)c1cc2/c(=C\c3ccc(N(C)C)cc3)c3ccccc3n2[n+]1C | > 100 |
| CC(C)(C)c1ccc(C(C)(C)C)c(N2C(=O)[C@@H]3[C@@H]4C=C[C@@H](C4)[C@]3(C)C2=O)c1 | > 100 |

The compounds below were run on CCRF-CEM leukemia (assay: inhibition of tumour cell growth, NCI panel, 48 h).

| Compound | TGI [µM] |
| --- | --- |
| C1CSC(Sc2nc(SC3=NCCS3)nc(SC3=NCCS3)n2)=N1 | > 100 |
| CC(=O)NCCC1CNc2ccccc21 (stereo unspecified) | > 100 |
| Cn1c(-c2ccccc2)cc(-c2ccsc2)c1-c1ccsc1 | > 100 |
| CN(C)CCCNC(=O)c1cc2/c(=C\c3ccc(N(C)C)cc3)c3ccccc3n2[n+]1C | 90.1 |
| CC(C)(C)c1ccc(C(C)(C)C)c(N2C(=O)[C@@H]3[C@@H]4C=C[C@@H](C4)[C@]3(C)C2=O)c1 | 32 |

The compounds below were run on OVCAR-5 ovarian (assay: inhibition of tumour cell growth, NCI panel, 48 h).

| Compound | TGI [µM] |
| --- | --- |
| C1CSC(Sc2nc(SC3=NCCS3)nc(SC3=NCCS3)n2)=N1 | > 100 |
| CC(=O)NCCC1CNc2ccccc21 (stereo unspecified) | > 100 |
| Cn1c(-c2ccccc2)cc(-c2ccsc2)c1-c1ccsc1 | > 100 |
| CN(C)CCCNC(=O)c1cc2/c(=C\c3ccc(N(C)C)cc3)c3ccccc3n2[n+]1C | > 100 |
